# Results: ChEMBL document CHEMBL2203120, “Contribution to investigation of antimicrobial activity of styrylquinolines” (Bioorg Med Chem, 2012)
# Where a SMILES comes first, the peptide text is derived from it. Bridges are numbered along the chain shown (N, C = ends). [ ]: non-standard residue; d: D form. The star is where a group is joined. Ileψ(thiazoline)Cys = CC[C@H](C)[C@H](N)C1=N[C@H](C(=O)*)CS1; dOrn = NCCC[C@@H](N)C(=O)O
# What was measured:
# Staphylococcus aureus [1] = assay: Antimicrobial activity against Staphylococcus aureus CCM 4516/08 after 48 hrs by broth microdilution method; assay type: functional; settings: CCM 4516/08, 48 h
# [2] = tested on: Staphylococcus epidermidis; assay: Antimicrobial activity against Staphylococcus epidermidis H 6966/08 after 48 hrs by broth microdilution method; assay type: functional; settings: H 6966/08, 48 h
# [3] = Lipophilicity, log P of compound by RP-HPLC analysis; assay type: physicochemical
# Trichosporon beigelii [4] = assay: Antimicrobial activity against Trichosporon beigelii 1188 after 48 hrs by broth microdilution test; assay type: functional; settings: Trichosporon beigelii, 1188, 48 h
# Candida tropicalis [5] = assay: Antimicrobial activity against Candida tropicalis 156 after 48 hrs by broth microdilution test; assay type: functional; settings: Candida tropicalis, 156, 48 h
# Staphylococcus aureus [6] = assay: Antimicrobial activity against methicillin-resistant Staphylococcus aureus H 5996/08 after 48 hrs by broth microdilution method; assay type: functional; settings: H 5996/08, 48 h
# Candida albicans [7] = assay: Antimicrobial activity against Candida albicans ATCC 44859 after 48 hrs by broth microdilution test; assay type: functional; settings: ATCC 44859, 48 h
# Pichia kudriavzevii [8] = assay: Antimicrobial activity against Candida krusei ATCC 6258 after 48 hrs by broth microdilution test; assay type: functional; settings: ATCC 6258, 48 h
# Staphylococcus aureus [9] = assay: Antimicrobial activity against methicillin-resistant Staphylococcus aureus H 5996/08 after 24 hrs by broth microdilution method; assay type: functional; settings: H 5996/08, 24 h
# [10] = tested on: Staphylococcus epidermidis; assay: Antimicrobial activity against Staphylococcus epidermidis H 6966/08 after 24 hrs by broth microdilution method; assay type: functional; settings: H 6966/08, 24 h
# Nakaseomyces glabratus [11] = assay: Antimicrobial activity against Candida glabrata 20/I after 48 hrs by broth microdilution test; assay type: functional
# Staphylococcus aureus [12] = assay: Antimicrobial activity against Staphylococcus aureus CCM 4516/08 after 24 hrs by broth microdilution method; assay type: functional; settings: CCM 4516/08, 24 h
# Candida albicans [13] = assay: Antimicrobial activity against Candida albicans ATCC 44859 after 24 hrs by broth microdilution test; assay type: functional; settings: ATCC 44859, 24 h
# Nakaseomyces glabratus [14] = assay: Antimicrobial activity against Candida glabrata 20/I after 24 hrs by broth microdilution test; assay type: functional
# Pichia kudriavzevii [15] = assay: Antimicrobial activity against Candida krusei ATCC 6258 after 24 hrs by broth microdilution test; assay type: functional; settings: ATCC 6258, 24 h
# Trichosporon beigelii [16] = assay: Antimicrobial activity against Trichosporon beigelii 1188 after 24 hrs by broth microdilution test; assay type: functional; settings: Trichosporon beigelii, 1188, 24 h
# Candida tropicalis [17] = assay: Antimicrobial activity against Candida tropicalis 156 after 24 hrs by broth microdilution test; assay type: functional; settings: Candida tropicalis, 156, 24 h
# Lichtheimia corymbifera [18] = assay: Antimicrobial activity against Absidia corymbifera 272 after 48 hrs by broth microdilution test; assay type: functional; settings: Lichtheimia corymbifera, 272, 48 h
# [19] = tested on: Trichophyton mentagrophytes; assay: Antimicrobial activity against Trichophyton mentagrophytes 445 after 120 hrs by broth microdilution test; assay type: functional; settings: Trichophyton mentagrophytes, 445, 120 h
# [20] = tested on: Trichophyton mentagrophytes; assay: Antimicrobial activity against Trichophyton mentagrophytes 445 after 72 hrs by broth microdilution test; assay type: functional; settings: Trichophyton mentagrophytes, 445, 72 h
# Lichtheimia corymbifera [21] = assay: Antimicrobial activity against Absidia corymbifera 272 after 24 hrs by broth microdilution test; assay type: functional; settings: Lichtheimia corymbifera, 272, 24 h
# Aspergillus fumigatus [22] = assay: Antimicrobial activity against Aspergillus fumigatus 231 after 48 hrs by broth microdilution test; assay type: functional; settings: Aspergillus fumigatus, 231, 48 h
# Aspergillus fumigatus [23] = assay: Antimicrobial activity against Aspergillus fumigatus 231 after 24 hrs by broth microdilution test; assay type: functional; settings: Aspergillus fumigatus, 231, 24 h
structure (smiles),measurement,setting,value
Oc1ccc(/C=C/c2ccc3c(Cl)cc(Cl)c(O)c3n2)cc1,MIC90,Staphylococcus aureus [1],15.6 µM
same,MIC90,[2],62.5 µM
same,logP,[3],5.07
same,MIC80,Trichosporon beigelii [4],> 125 µM
same,MIC80,Candida tropicalis [5],> 125 µM
same,MIC90,Staphylococcus aureus [6],31.2 µM
same,MIC80,Candida albicans [7],> 125 µM
same,MIC80,Pichia kudriavzevii [8],> 125 µM
same,MIC90,Staphylococcus aureus [9],31.2 µM
same,MIC90,[10],62.5 µM
same,MIC80,Nakaseomyces glabratus [11],> 125 µM
same,MIC90,Staphylococcus aureus [12],7.81 µM
Oc1ccc(/C=C/c2ccc3c(Cl)cc(Cl)c(O)c3n2)c(O)c1,MIC90,Staphylococcus aureus [1],62.5 µM
same,MIC90,[2],31.2 µM
same,logP,[3],4.68
same,MIC90,Staphylococcus aureus [6],62.5 µM
same,MIC90,Staphylococcus aureus [9],31.2 µM
same,MIC90,[10],15.6 µM
same,MIC90,Staphylococcus aureus [12],15.6 µM
Oc1cc(O)cc(/C=C/c2ccc3c(Cl)cc(Cl)c(O)c3n2)c1,MIC80,Candida albicans [13],> 125 µM
same,MIC80,Nakaseomyces glabratus [14],> 125 µM
same,MIC80,Pichia kudriavzevii [15],> 125 µM
same,MIC90,Staphylococcus aureus [1],125 µM
same,MIC90,[2],125 µM
same,logP,[3],4.68
same,MIC80,Trichosporon beigelii [4],> 125 µM
same,MIC80,Candida tropicalis [5],> 125 µM
same,MIC90,Staphylococcus aureus [6],125 µM
same,MIC80,Candida albicans [7],> 125 µM
same,MIC80,Pichia kudriavzevii [8],> 125 µM
same,MIC90,Staphylococcus aureus [9],125 µM
same,MIC90,[10],31.2 µM
same,MIC80,Trichosporon beigelii [16],> 125 µM
same,MIC80,Nakaseomyces glabratus [11],> 125 µM
same,MIC90,Staphylococcus aureus [12],125 µM
same,MIC80,Candida tropicalis [17],> 125 µM
CCOc1ccccc1/C=C/c1ccc2c(Cl)cc(Cl)c(O)c2n1,MIC80,Candida albicans [13],0.49 µM
same,MIC80,Nakaseomyces glabratus [14],0.98 µM
same,MIC80,Pichia kudriavzevii [15],0.98 µM
same,MIC90,Staphylococcus aureus [1],7.81 µM
same,MIC90,[2],7.81 µM
same,logP,[3],5.67
same,MIC80,Trichosporon beigelii [4],1.95 µM
same,MIC80,Candida tropicalis [5],0.98 µM
same,MIC90,Staphylococcus aureus [6],7.81 µM
same,MIC50,Lichtheimia corymbifera [18],15.6 µM
same,MIC80,Candida albicans [7],0.98 µM
same,MIC50,[19],1.52 µM
same,MIC50,[20],1.39 µM
same,MIC50,Lichtheimia corymbifera [21],15.6 µM
same,MIC80,Pichia kudriavzevii [8],3.9 µM
same,MIC90,Staphylococcus aureus [9],3.9 µM
same,MIC50,Aspergillus fumigatus [22],3.9 µM
same,MIC90,[10],3.9 µM
same,MIC80,Trichosporon beigelii [16],0.49 µM
same,MIC80,Nakaseomyces glabratus [11],1.95 µM
same,MIC90,Staphylococcus aureus [12],3.9 µM
same,MIC80,Candida tropicalis [17],0.98 µM
same,MIC50,Aspergillus fumigatus [23],3.9 µM
CCOc1ccc(/C=C/c2ccc3c(Cl)cc(Cl)c(O)c3n2)cc1,MIC80,Candida albicans [13],125 µM
same,MIC80,Nakaseomyces glabratus [14],> 125 µM
same,MIC80,Pichia kudriavzevii [15],125 µM
same,MIC90,Staphylococcus aureus [1],125 µM
same,MIC90,[2],125 µM
same,logP,[3],5.67
same,MIC80,Trichosporon beigelii [4],125 µM
same,MIC80,Candida tropicalis [5],125 µM
same,MIC90,Staphylococcus aureus [6],125 µM
same,MIC50,Lichtheimia corymbifera [18],> 125 µM
same,MIC80,Candida albicans [7],125 µM
same,MIC50,[19],125 µM
same,MIC50,[20],125 µM
same,MIC50,Lichtheimia corymbifera [21],> 125 µM
same,MIC80,Pichia kudriavzevii [8],125 µM
same,MIC90,Staphylococcus aureus [9],125 µM
same,MIC50,Aspergillus fumigatus [22],> 125 µM
same,MIC90,[10],125 µM
same,MIC80,Trichosporon beigelii [16],125 µM
same,MIC80,Nakaseomyces glabratus [11],> 125 µM
same,MIC90,Staphylococcus aureus [12],125 µM
same,MIC80,Candida tropicalis [17],125 µM
same,MIC50,Aspergillus fumigatus [23],> 125 µM
Oc1c(Cl)cc(Cl)c2ccc(/C=C/c3ccc(/C=C/c4ccc5c(Cl)cc(Cl)c(O)c5n4)cc3)nc12,MIC80,Candida albicans [13],0.98 µM
same,MIC80,Nakaseomyces glabratus [14],0.49 µM
same,MIC80,Pichia kudriavzevii [15],0.98 µM
same,MIC90,Staphylococcus aureus [1],125 µM
same,MIC90,[2],125 µM
same,logP,[3],8.88
same,MIC90,Staphylococcus aureus [6],125 µM
same,MIC80,Candida albicans [7],3.9 µM
same,MIC50,[20],3.9 µM
same,MIC90,Staphylococcus aureus [9],62.5 µM
same,MIC90,[10],62.5 µM
same,MIC80,Trichosporon beigelii [16],3.9 µM
same,MIC90,Staphylococcus aureus [12],62.5 µM
same,MIC50,Aspergillus fumigatus [23],3.9 µM
Oc1ccc(/C=C/c2ccc3c(Cl)cc(Cl)c(O)c3n2)cc1O,MIC90,Staphylococcus aureus [1],62.5 µM
same,MIC90,[2],31.2 µM
same,logP,[3],4.68
same,MIC90,Staphylococcus aureus [6],62.5 µM
same,MIC90,Staphylococcus aureus [9],31.2 µM
same,MIC90,[10],15.6 µM
same,MIC90,Staphylococcus aureus [12],62.5 µM
CC[C@H](C)[C@H](N)C1=N[C@H](C(=O)N[C@@H](CC(C)C)C(=O)N[C@H](CCC(=O)O)C(=O)N[C@H](C(=O)N[C@H]2CCCCNC(=O)[C@H](CC(N)=O)NC(=O)[C@@H](CC(=O)O)NC(=O)[C@H](Cc3cnc[nH]3)NC(=O)[C@@H](Cc3ccccc3)NC(=O)[C@H]([C@@H](C)CC)NC(=O)[C@@H](CCCN)NC2=O)[C@@H](C)CC)CS1 [BACITRACIN] ({Ileψ(thiazoline)Cys}-L[dE]IK[dOrn]I[dF]H[dD]N; lactam 4-C),MIC90,Staphylococcus aureus [1],31.2 µM
same,MIC90,[2],31.6 µM
same,MIC90,Staphylococcus aureus [6],31.6 µM
same,MIC90,Staphylococcus aureus [9],15.6 µM
same,MIC90,[10],15.6 µM
same,MIC90,Staphylococcus aureus [12],15.6 µM
O=C(O)c1cn(C2CC2)c2cc(N3CCNCC3)c(F)cc2c1=O [CIPROFLOXACIN],MIC90,Staphylococcus aureus [1],0.98 µM
same,MIC90,[2],250 µM
same,MIC90,Staphylococcus aureus [6],500 µM
same,MIC90,Staphylococcus aureus [9],500 µM
same,MIC90,[10],250 µM
same,MIC90,Staphylococcus aureus [12],0.98 µM
OC(Cn1cncn1)(Cn1cncn1)c1ccc(F)cc1F [FLUCONAZOLE],MIC80,Candida albicans [13],0.06 µM
same,MIC80,Nakaseomyces glabratus [14],0.98 µM
same,MIC80,Trichosporon beigelii [4],0.48 µM
same,MIC80,Candida tropicalis [5],> 125 µM
same,MIC50,Lichtheimia corymbifera [18],> 125 µM
same,MIC80,Candida albicans [7],0.12 µM
same,MIC50,Lichtheimia corymbifera [21],> 125 µM
same,MIC50,Aspergillus fumigatus [22],> 125 µM
same,MIC80,Trichosporon beigelii [16],0.24 µM
same,MIC80,Candida tropicalis [17],0.12 µM
same,MIC50,Aspergillus fumigatus [23],> 125 µM
CC1(C)S[C@@H]2[C@H](NC(=O)COc3ccccc3)C(=O)N2[C@H]1C(=O)O [PENICILLIN V],MIC90,Staphylococcus aureus [1],0.24 µM
same,MIC90,[2],125 µM
same,MIC90,Staphylococcus aureus [6],125 µM
same,MIC90,Staphylococcus aureus [9],125 µM
same,MIC90,[10],31.2 µM
same,MIC90,Staphylococcus aureus [12],0.24 µM
